PubChem BioAssay (NCI)
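Grown in 96-well plates, cells were treated for 48 hours with each compound at five concentrations. Insufficient inhibition: endpoint recorded as highest concentration tested. TGI marks complete inhibition of growth.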 Where a SMILES comes first, the peptide text is derived from it. [ ]: non-standard residue; d: D form. The star is where a group is joined. ξ: configuration not given here. ξPhe(4-NO2) = NC(Cc1ccc([N+](=O)[O-])cc1)C(=O)O; Boc = CC(C)(C)OC(=O)*; OBn = c1ccc(CO*)cc1

Assays:
Experiment in all cases: inhibition of tumour cell growth, NCI panel, 48 h
ACHN renal = tested on: ACHN renal
HCT-116 colon = tested on: HCT-116 colon
HL-60(TB) leukemia = tested on: HL-60(TB) leukemia
HT29 colon = tested on: HT29 colon
KM12 colon = tested on: KM12 colon
MDA-MB-231 breast = tested on: MDA-MB-231 breast
NCI-H23 lung = tested on: NCI-H23 lung
NCI/ADR-RES ovarian = tested on: NCI/ADR-RES ovarian
RPMI-8226 leukemia = tested on: RPMI-8226 leukemia
RXF 393 renal = tested on: RXF 393 renal
SK-MEL-2 melanoma = tested on: SK-MEL-2 melanoma
SK-MEL-28 melanoma = tested on: SK-MEL-28 melanoma
SR leukemia = tested on: SR leukemia
OVCAR-4 ovarian = tested on: OVCAR-4 ovarian

SMILES	TGI (ACHN renal)	TGI (HCT-116 colon)	TGI (HL-60(TB) leukemia)	TGI (HT29 colon)	TGI (KM12 colon)	TGI (MDA-MB-231 breast)	TGI (NCI-H23 lung)	TGI (NCI/ADR-RES ovarian)	TGI (RPMI-8226 leukemia)	TGI (RXF 393 renal)	TGI (SK-MEL-2 melanoma)	TGI (SK-MEL-28 melanoma)	TGI (SR leukemia)	TGI (OVCAR-4 ovarian)
c1ccc2[nH]c3[nH]c4[nH]c5ccccc5[nH]c4[nH]c3[nH]c2c1	> 100 µM	> 100 µM	> 100 µM	> 100 µM	> 100 µM	> 100 µM	> 100 µM	> 100 µM	> 100 µM	> 100 µM	> 100 µM	> 100 µM	> 100 µM	–
COc1cc(/C=C2/SC(c3ccccc3)N(c3ccc(Cl)cc3)C2=O)cc(OC)c1OC (stereo not drawn)	> 100 µM	> 100 µM	> 100 µM	> 100 µM	> 100 µM	> 100 µM	> 100 µM	> 100 µM	> 100 µM	> 100 µM	> 100 µM	> 100 µM	> 100 µM	> 100 µM
CC(=O)n1nc(-c2nc3ccccc3nc2Cl)cc1Cl	28.5 µM	25.4 µM	35 µM	51.9 µM	48.5 µM	> 100 µM	49.6 µM	55.8 µM	> 100 µM	> 100 µM	> 100 µM	> 86.3 µM	13.3 µM	53.3 µM
Cc1cnc2[nH]c(-c3ccc(F)cc3)cc(=O)c2c1	> 100 µM	> 100 µM	20.4 µM	> 100 µM	> 100 µM	> 100 µM	> 100 µM	> 87.5 µM	> 73.3 µM	> 100 µM	> 82.1 µM	> 100 µM	> 61.5 µM	> 100 µM
COC(=O)/C(C#N)=C1\NC(=O)CC(c2ccccc2)C1C#N (stereo not drawn)	> 100 µM	> 100 µM	> 100 µM	> 100 µM	> 100 µM	> 100 µM	–	> 100 µM	> 100 µM	> 100 µM	> 100 µM	> 100 µM	> 100 µM	> 100 µM
C[C@]12CC(c3ccccc3O1)C(C#N)C(=O)N2 (stereo partly drawn)	> 100 µM	> 100 µM	> 100 µM	> 100 µM	> 100 µM	> 100 µM	> 100 µM	> 100 µM	> 100 µM	> 100 µM	> 100 µM	> 100 µM	> 100 µM	> 100 µM
CCCCCC(=O)OCC(=O)[C@H]1[C@H](C)C[C@H]2[C@@H]3C[C@H](F)C4=C/C(=N/OC(=O)c5cccc6c(=O)c7ccccc7[nH]c56)C=C[C@]4(C)[C@H]3[C@@H](O)C[C@@]21C	> 100 µM	85.3 µM	> 100 µM	57.8 µM	27.3 µM	> 100 µM	> 100 µM	41.1 µM	14.9 µM	–	76.8 µM	–	93.3 µM	> 100 µM
COc1ccc(-c2c3c(n(C4OC(CO)C(O)C(O)C4O)c(=S)c2C#N)CC(C)(C)CC3=O)cc1 (stereo not drawn)	> 100 µM	> 100 µM	> 100 µM	> 100 µM	> 100 µM	> 100 µM	> 100 µM	> 100 µM	> 100 µM	> 100 µM	> 100 µM	> 100 µM	> 100 µM	> 100 µM
CS(=O)(=O)c1[nH]nc2[nH]c(=O)[nH]c(=O)c12	> 10 µM	> 10 µM	> 10 µM	> 10 µM	> 10 µM	> 10 µM	> 10 µM	> 10 µM	–	> 10 µM	> 10 µM	> 10 µM	> 10 µM	> 10 µM
O=c1cc(NCC2CCCCC2)[nH]c(=O)[nH]1	> 100 µM	> 100 µM	> 100 µM	–	> 100 µM	> 100 µM	> 100 µM	> 100 µM	> 100 µM	> 100 µM	–	> 100 µM	> 100 µM	> 100 µM
CC1(C)C=[N+]([O-])C(C)(C)N1	> 100 µM	> 100 µM	> 100 µM	> 100 µM	> 100 µM	> 100 µM	> 100 µM	> 100 µM	> 100 µM	> 100 µM	> 100 µM	> 100 µM	> 100 µM	> 100 µM
CCOC(=O)c1cc(C2CCN(CC(C)CC)C2=S)c(C(=O)/C=C(/C)N)[nH]1 (stereo not drawn)	> 50 µM	> 50 µM	> 50 µM	> 50 µM	> 50 µM	> 50 µM	> 50 µM	> 50 µM	> 50 µM	> 50 µM	> 50 µM	–	> 50 µM	–
CC(C)(C)OC(=O)NC(Cc1ccc([N+](=O)[O-])cc1)C(=O)NCC(=O)OCc1ccccc1 (stereo not drawn) (Boc-[ξPhe(4-NO2)]-Gly-OBn)	48.4 µM	68.2 µM	> 100 µM	61.3 µM	59 µM	80.3 µM	47.5 µM	> 100 µM	45.9 µM	53.1 µM	–	47.3 µM	> 100 µM	> 100 µM
COc1ccc(C2CC(=O)Oc3ccccc3O2)cc1 (stereo not drawn)	> 100 µM	> 100 µM	> 100 µM	> 100 µM	> 100 µM	> 100 µM	> 100 µM	> 100 µM	> 100 µM	> 100 µM	–	> 100 µM	> 100 µM	> 100 µM
C/C(=N\NC(=O)/C(C#N)=C\c1ccc(N(CCC#N)CCC#N)cc1)c1ccccc1	> 10 µM	> 10 µM	> 10 µM	> 10 µM	> 10 µM	> 10 µM	> 10 µM	> 10 µM	> 10 µM	> 10 µM	–	> 10 µM	> 10 µM	> 10 µM
CC1(C)C=C(/C=N/Nc2ccc(Br)cc2)C(C#N)=C(O)C1(C#N)C#N	> 100 µM	> 100 µM	88.1 µM	> 100 µM	> 100 µM	> 100 µM	> 100 µM	> 100 µM	> 100 µM	91.3 µM	–	> 100 µM	75.5 µM	> 100 µM
CC(=N/NC(=S)Nc1c(C)n(C)n(-c2ccccc2)c1=O)/C(C)=N\NC(=S)Nc1c(C)n(C)n(-c2ccccc2)c1=O	> 100 µM	> 100 µM	> 100 µM	> 100 µM	> 100 µM	> 100 µM	> 100 µM	> 100 µM	–	> 100 µM	> 100 µM	–	> 100 µM	> 100 µM
